Experimental data reported in PMC10756276, “Highly specific σ2R/TMEM97 ligand FEM-1689 alleviates neuropathic pain and inhibits the integrated stress response” (Proceedings of the National Academy of Sciences of the …, 2023).
Entries after “also recorded” stand apart in the source; their conditions may differ. Where two headings read alike, the source gives them in different places.

Key:
5HT1A = target: T1, 5HT1A (Homo sapiens, UniProt P08908); assay: PDSP competitive binding assay; conditions: 10 µM test article; read-out: Ki: primary assay inhibition of radioligand binding, 5HT1A
T1 construct: purchased NIMH Psychoactive Drug Screening Program (PDSP), University of North Carolina at Chapel Hill

5HT2B = 5HT2B (Homo sapiens, UniProt P41595); assay: PDSP competitive binding assay; conditions: 10 µM test article; read-out: Ki: primary assay inhibition of radioligand binding, 5HT2B
Alpha2b = target: T2, Alpha2b (Homo sapiens, UniProt P18089); assay: PDSP competitive binding assay; conditions: 10 µM test article; read-out: Ki: primary assay inhibition of radioligand binding, Alpha2b
T2 construct: purchased NIMH Psychoactive Drug Screening Program (PDSP), University of North Carolina at Chapel Hill

M1 = M1 (Homo sapiens, UniProt P11229); assay: PDSP competitive binding assay; conditions: 10 µM test article; read-out: Ki: primary assay inhibition of radioligand binding, M1
M3 = target: T3, M3 (Homo sapiens, UniProt P20309); assay: PDSP competitive binding assay; conditions: 10 µM test article; read-out: Ki: primary assay inhibition of radioligand binding, M3
T3 construct: purchased NIMH Psychoactive Drug Screening Program (PDSP), University of North Carolina at Chapel Hill

[1] = Pharmacokinetic parameters after IP dosing (Fig. 2); type: in vivo
mouse DRG neurons = assay: Neurite outgrowth, Sholl analysis; type: cell-based; conditions: 100 nM, wild-type neurons
Protocol: Sholl analysis was performed using the Neuroanatomy plugin in ImageJ according to the authors’ recommendations ([77]). Only solitary cells were used for analysis. The area under the curve was calculated using GraphPad Prism. More details are available in SI Appendix. […]
gently layered onto 3 mL of 10% bovine serum albumin (BSA, BioPharm #71- 040-002) in HBSS in a 15 ml falcon tube. T his BSA gradient containing the cells was centrifuged at 900g for 5 min at room temperatur e.
The pellet containing the cells was resuspended in Br ainPhys media (STEMCell #05790) containing 2% […]
1% Gluta Max (Gibco # 350 5 0061). Hu man DRG ne uron s were plated a nd grown o n glass coverslips coate d with po ly-D-lysine (Sigma #P7405). C ultured D RG neurons were plated for 24 hours before being treated.
Methylglyoxal (Sigma- Aldrich #M0252) and F EM- 1689 were serially diluted in media.
Mouse samples - DRG cultures […]
anesthesia and decapitated. […]
section above with minor differences.
Mouse DRG neurons were grown in
SAS-0132 and DKR-1677 were […]
dissolved in 100% DMSO to a final concentr ation of 200mM and stored at - 20 °C. and DKR-1677 were serially diluted in media. […]
Cultured mouse DRG neur ons from wild- type and TMEM97KO animals were treated w ith either vehicle or FEM-1689 (100 nM). […] The area under the curve was calculated using Graph Pad […]

[2] = test system: MGO-induced mechanical hypersensitivity, wild-type mice; assay: Methylglyoxal-induced mechanical hypersensitivity; type: in vivo, mouse; conditions: MGO 20 ng intraplantar; FEM-1689 20 mg/kg IV or ISRIB 2.5 mg/kg IP 24 h after MGO
H4 = H4 (Homo sapiens, UniProt Q9H3N8); assay: PDSP competitive binding assay
Sequence of H4 (Q9H3N8 whole entry): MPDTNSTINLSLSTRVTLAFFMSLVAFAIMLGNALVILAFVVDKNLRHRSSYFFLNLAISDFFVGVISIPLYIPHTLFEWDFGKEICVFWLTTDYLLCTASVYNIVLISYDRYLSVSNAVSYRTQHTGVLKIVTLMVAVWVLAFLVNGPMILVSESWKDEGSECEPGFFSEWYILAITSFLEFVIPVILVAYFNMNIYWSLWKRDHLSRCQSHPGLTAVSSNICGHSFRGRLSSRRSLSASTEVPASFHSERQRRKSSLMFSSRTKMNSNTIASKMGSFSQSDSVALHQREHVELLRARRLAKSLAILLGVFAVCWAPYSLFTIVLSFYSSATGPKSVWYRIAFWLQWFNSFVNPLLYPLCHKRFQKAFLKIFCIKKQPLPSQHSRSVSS

Sequence of 5HT2B (P41595 whole entry): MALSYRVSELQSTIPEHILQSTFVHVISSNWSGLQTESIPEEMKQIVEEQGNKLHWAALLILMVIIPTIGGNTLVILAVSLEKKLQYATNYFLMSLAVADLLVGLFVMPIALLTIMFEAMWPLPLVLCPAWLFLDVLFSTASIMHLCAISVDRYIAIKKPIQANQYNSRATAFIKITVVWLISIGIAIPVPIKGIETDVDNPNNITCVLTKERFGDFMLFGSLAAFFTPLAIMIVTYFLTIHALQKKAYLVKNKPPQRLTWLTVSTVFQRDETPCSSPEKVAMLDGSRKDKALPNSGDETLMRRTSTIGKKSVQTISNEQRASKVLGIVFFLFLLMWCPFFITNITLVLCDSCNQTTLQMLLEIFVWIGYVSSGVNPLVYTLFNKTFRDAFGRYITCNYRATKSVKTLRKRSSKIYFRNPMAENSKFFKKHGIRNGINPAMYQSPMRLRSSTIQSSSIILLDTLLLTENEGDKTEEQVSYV
T3 sequence (P20309 whole entry): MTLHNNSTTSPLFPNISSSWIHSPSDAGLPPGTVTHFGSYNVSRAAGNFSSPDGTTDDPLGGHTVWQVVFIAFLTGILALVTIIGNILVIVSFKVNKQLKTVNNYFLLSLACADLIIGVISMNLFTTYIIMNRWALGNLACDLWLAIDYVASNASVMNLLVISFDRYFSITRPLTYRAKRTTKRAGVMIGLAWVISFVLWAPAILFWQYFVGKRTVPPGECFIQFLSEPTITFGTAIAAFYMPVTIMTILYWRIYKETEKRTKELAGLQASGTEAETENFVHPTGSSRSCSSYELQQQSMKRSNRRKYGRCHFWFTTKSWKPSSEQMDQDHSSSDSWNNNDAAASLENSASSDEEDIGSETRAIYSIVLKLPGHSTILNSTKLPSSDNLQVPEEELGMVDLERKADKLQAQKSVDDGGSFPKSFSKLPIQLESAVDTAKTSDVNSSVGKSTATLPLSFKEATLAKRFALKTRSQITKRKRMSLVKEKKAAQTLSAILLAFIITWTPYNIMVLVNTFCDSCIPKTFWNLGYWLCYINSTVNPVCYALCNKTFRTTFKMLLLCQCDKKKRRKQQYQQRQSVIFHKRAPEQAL
T2 sequence (P18089 whole entry): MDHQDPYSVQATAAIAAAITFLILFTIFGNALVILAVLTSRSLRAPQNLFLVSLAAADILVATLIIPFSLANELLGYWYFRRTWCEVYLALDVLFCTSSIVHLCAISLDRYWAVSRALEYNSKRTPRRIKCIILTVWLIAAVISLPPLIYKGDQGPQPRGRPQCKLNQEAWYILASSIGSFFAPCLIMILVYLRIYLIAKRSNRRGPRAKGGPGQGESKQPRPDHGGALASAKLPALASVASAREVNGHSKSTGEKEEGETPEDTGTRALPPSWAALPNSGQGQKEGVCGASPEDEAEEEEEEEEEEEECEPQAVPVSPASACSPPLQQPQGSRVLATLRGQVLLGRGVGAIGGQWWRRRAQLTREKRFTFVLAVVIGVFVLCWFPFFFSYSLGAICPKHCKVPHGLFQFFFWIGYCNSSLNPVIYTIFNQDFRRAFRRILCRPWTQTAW
Sequence of M1 (P11229 whole entry): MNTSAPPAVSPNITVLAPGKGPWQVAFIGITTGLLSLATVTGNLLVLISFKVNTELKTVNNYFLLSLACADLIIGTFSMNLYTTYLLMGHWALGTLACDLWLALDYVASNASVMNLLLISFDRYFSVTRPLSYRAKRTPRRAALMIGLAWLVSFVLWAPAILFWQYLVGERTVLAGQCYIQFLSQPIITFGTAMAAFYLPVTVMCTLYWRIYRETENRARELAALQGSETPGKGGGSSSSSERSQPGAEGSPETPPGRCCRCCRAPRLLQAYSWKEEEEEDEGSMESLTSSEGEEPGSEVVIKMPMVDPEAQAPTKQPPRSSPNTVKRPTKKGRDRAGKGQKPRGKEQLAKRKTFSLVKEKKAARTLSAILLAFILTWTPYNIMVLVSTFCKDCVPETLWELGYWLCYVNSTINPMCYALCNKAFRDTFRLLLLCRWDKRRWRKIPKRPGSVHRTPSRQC
T1 sequence (P08908 whole entry): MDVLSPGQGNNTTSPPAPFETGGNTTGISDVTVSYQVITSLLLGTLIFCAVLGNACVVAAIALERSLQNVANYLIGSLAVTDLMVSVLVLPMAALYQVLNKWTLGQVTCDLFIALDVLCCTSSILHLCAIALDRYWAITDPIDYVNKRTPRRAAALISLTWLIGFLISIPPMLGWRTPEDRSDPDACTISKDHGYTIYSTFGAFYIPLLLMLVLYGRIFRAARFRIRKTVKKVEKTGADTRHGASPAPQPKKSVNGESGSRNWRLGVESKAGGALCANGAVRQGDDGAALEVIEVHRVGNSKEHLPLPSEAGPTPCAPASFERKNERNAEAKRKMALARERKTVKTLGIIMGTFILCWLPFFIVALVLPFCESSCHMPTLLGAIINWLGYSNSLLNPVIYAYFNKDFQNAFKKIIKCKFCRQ

Structure (SMILES): OCCCN1CC[C@@H]2C[C@H]1c1cc(-c3ccc(C(F)(F)F)cc3)ccc12 [FEM-1689]
- inhibition at 10 µM (5HT1A): < 50%
- inhibition at 10 µM (5HT2B): < 50%
- inhibition at 10 µM (Alpha2b): < 50%
- inhibition at 10 µM (M1): < 50%
- inhibition at 10 µM (M3): < 50%
- brain to plasma ratio (AUClast) ([1]; IP): 20.5
- Cmax (IP) ([1]; brain, IP): 10916 ng/mL
- t1/2 (IP) ([1]; brain, IP): 11.4 h
- brain entry ([1]; pharmacokinetic experiments, Fig. 2): readily enters the brain
- Cmax (IP) ([1]; plasma, IP): 508 ng/mL
- t1/2 (IP) ([1]; plasma, IP): 21.7 h
- neurite outgrowth (Sholl analysis) (mouse DRG neurons): increase in the number and complexity of neurites in wild-type neurons; also recorded: promoted neurite outgrowth in wild-type neurons
- MGO-induced mechanical hypersensitivity [2]: completely reversed MGO-induced mechanical hypersensitivity; also recorded: alleviated mechanical hypersensitivity for the duration of the pain state
- LogKi, H4 (H4; dose response curve, given as LogKi with negative sign): -5.26
- Ki (H4; read-out: H4 Ki, single determination): 5.51 µM
- Ki (H4; read-out: Ki, H4, dose response curve): 5.51 µM
